# Measurements: publication PMC10831071, “Reaction hijacking inhibition of Plasmodium falciparum asparagine tRNA synthetase” (Nature Communications, 2024)
# Several values for one entry are separate records, joined by “and”; a condition that tells them apart may be missing. Equal entries are not always repeated. Where two headings read alike, the source gives them in different places.
# How the values were obtained:
# PfAsnRS = PfAsnRS (Plasmodium falciparum, UniProt O96198); test: biochemical; conditions: for ATP consumption: PfAsnRS
# Sequence of PfAsnRS (O96198 entry or part of it): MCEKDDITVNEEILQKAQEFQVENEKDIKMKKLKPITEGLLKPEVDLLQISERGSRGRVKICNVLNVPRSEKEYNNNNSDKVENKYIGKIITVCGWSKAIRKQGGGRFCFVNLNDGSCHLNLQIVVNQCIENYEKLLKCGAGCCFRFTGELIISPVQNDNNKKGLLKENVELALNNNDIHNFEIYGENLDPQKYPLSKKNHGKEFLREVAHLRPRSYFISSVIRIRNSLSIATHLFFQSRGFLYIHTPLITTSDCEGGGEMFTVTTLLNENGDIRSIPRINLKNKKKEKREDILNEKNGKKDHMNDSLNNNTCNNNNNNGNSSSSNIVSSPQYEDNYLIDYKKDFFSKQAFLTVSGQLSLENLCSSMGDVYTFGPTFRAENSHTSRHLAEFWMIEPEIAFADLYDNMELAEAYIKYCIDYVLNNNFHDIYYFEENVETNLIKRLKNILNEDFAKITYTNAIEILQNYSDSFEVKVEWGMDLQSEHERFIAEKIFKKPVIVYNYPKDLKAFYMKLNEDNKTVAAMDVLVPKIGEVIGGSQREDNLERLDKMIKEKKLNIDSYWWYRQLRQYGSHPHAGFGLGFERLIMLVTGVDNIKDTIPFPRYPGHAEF
# HsAsnRS = target: T1, HsAsnRS (Homo sapiens, UniProt O43776); test: ATP consumption assay (Kinase-Glo), HsAsnRS; assay type: biochemical; conditions: for ATP consumption: HsAsnRS, normalised to 1 (Fig 3E)
# T1 construct: HsAsnRS (residues M1–P548) and CDHsAsnRS (residues A98–P548); His6 (N, cleaved yes); made in house; host or cells: E. coli BL21 (DE3), pET11a
# T1 sequence (O43776 1-548): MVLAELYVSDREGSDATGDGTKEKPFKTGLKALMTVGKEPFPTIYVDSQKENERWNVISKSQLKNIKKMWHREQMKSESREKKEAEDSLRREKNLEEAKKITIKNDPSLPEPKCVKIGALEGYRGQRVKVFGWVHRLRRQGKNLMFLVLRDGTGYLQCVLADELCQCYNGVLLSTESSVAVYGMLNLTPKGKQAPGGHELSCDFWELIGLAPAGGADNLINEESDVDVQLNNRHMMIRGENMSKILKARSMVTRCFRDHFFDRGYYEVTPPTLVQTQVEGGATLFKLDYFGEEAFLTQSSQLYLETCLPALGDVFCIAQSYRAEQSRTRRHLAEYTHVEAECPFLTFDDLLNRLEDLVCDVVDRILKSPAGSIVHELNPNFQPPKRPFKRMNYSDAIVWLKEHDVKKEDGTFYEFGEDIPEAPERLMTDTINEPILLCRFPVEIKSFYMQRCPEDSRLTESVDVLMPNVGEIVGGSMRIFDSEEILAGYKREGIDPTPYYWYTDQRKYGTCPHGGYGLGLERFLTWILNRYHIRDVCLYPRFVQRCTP
# [1] = test system: protein translation in P. falciparum trophozoites (Cam3.II-rev); test: Protein translation assay (OPP incorporation); assay type: cell-based, Plasmodium falciparum; conditions: for Translation: individual experiments, 0 nM = 100; for IC50: read-out: IC50 (Translation)
# Protocol: O-propargyl-puromycin (OPP) (Abcam) was added to the culture and incubated for a further 2 h. Parasites were washed three times in 1 × PBS (Gibco™) and fixed with 4% formaldehyde (Polysciences) and 0.02% glutaraldehyde (Sigma) in 1 × PBS for 20 min at room temperature (RT). Cells were washed two times with buffer A (3% human serum in 1 × PBS). Pellets were permeabilized in buffer A containing 0.05% Triton® X-100 and washed two times with buffer A. Fixed-permeabilized cells were subjected to copper-catalyzed azide–alkyne cycloaddition (CuAAC) at 37 °C for 1 h in the presence of 0.1 mM CuSO4, 0.5 mM THPTA, 5 mM sodium ascorbate, and 0.1 μM Alexa Fluor 488 azide in buffer A. Pellets were washed four times in buffer A and resuspended in buffer A containing 25 μg/ml propidium iodide (Invitrogen™). Cells were interrogated by flow cytometry (FACS Canto II; BD Biosciences, San Jose, CA) using FITC and Cy™5.5 channels.
# [2] = test system: P. falciparum Cam3.II-rev; test: Drug pulse (6 h) viability assay; assay type: cell-based, Plasmodium falciparum; conditions: for IC50: read-out: IC50 (Viability)
# Protocol: (§1) Viability was assessed in the second cycle by flow cytometry, following labeling with 2 μM Syto-61 (Thermo Fisher Scientific)[48],[49]. Viability represents the parasitemia normalized to untreated and “kill” controls that were treated with 2 μM dihydroartemisinin (DHA; Sigma-Aldrich) for 48–72 h. For drug pulse assays, tightly synchronized Cam3.II-rev[50] parasites (1–1.5% parasitemia, 0.2% final hematocrit) were added to the plates and incubated for 6 h. Drugs were removed and the parasitemia assessed in the trophozoite stage of the next cycle.
# P. falciparum (3D7) = test: Activity against P. falciparum 3D7 cultures, 72 h (PfLDH growth inhibition / flow cytometry); assay type: cell-based, Plasmodium falciparum; conditions: Plasmodium falciparum, 3D7, 72 h, read-out: Pf3D7 IC50 (72h), individual biological repeats (source data of Table 1)
# Protocol: Antimalarial activity against P. falciparum 3D7 was tested by TCGLS, Kolkata, India, using the lactate dehydrogenase (PfLDH) growth inhibition assay. […] Plates were shaken to ensure mixing and were placed in the dark at 21 °C for 20 min. […] P. falciparum strain (3D7) was obtained from BEI Resources.
# as §1
# [3] = 78.1 nM, 6 h pulse, individual experiments, 0 nM = 100
# [4] = 156.3 nM, 6 h pulse, individual experiments, 0 nM = 100
# [5] = 312.5 nM, 6 h pulse, individual experiments, 0 nM = 100
# [6] = 625 nM, 6 h pulse, individual experiments, 0 nM = 100
# [7] = 1250 nM, 6 h pulse, individual experiments, 0 nM = 100
# [8] = 2500 nM, 6 h pulse, individual experiments, 0 nM = 100
# [9] = 5000 nM, 6 h pulse, individual experiments, 0 nM = 100
# [10] = 10000 nM, 6 h pulse, individual experiments, 0 nM = 100
# [11] = 20000 nM, 6 h pulse, individual experiments, 0 nM = 100
smiles,measurement,setting,value
"Nc1ncnc2c1ncn2[C@@H]1O[C@H](COS(N)(=O)=O)[C@@H](O)[C@H]1O [AMS, adenosine 5’-O-sulfamate, reference compound]",ATP consumption,"PfAsnRS; 0.03 μM AMS, normalised to 1 (Fig 3D), 0.03 µM",0.946
same,ATP consumption,"PfAsnRS; 0.1 μM AMS, normalised to 1 (Fig 3D), 0.1 µM",0.5414 and 0.637
same,ATP consumption,"PfAsnRS; 0.3 μM AMS, normalised to 1 (Fig 3D), 0.3 µM",0.3347 and 0.4652
same,ATP consumption,"PfAsnRS; 1 μM AMS, normalised to 1 (Fig 3D), 1 µM",0.189 and 0.2604
same,ATP consumption,"PfAsnRS; 3 μM AMS, normalised to 1 (Fig 3D), 3 µM",0.1468 and 0.18
same,ATP consumption,"PfAsnRS; 10 μM AMS, normalised to 1 (Fig 3D), 10 µM",0.0653 and 0.08191
same,ATP consumption,"PfAsnRS; 30 μM AMS, normalised to 1 (Fig 3D), 30 µM",0.09691 and 0.0585
same,IC50,"PfAsnRS; IC50, ATP consumption, 0.05 μM PfAsnRS, E. coli tRNA present, 37 °C, 1 h (Fig. 3C, D)",190 nM
NC(=O)C[C@H](N)C(=O)NS(=O)(=O)c1cccc(-c2cc3ncnc(N)c3s2)c1 [Asn-OSM-S-106],ATP consumption,"PfAsnRS; 0.005 μM Asn-OSM-S-106, 0 μM = 100 (Fig 3F), 0.005 µM",96.6227 and 115.849 and 86.517 and 87.5323
same,ATP consumption,"PfAsnRS; 0.05 μM Asn-OSM-S-106, 0 μM = 100 (Fig 3F), 0.05 µM",102.641 and 101.648 and 126.552 and 109.716 and 83.8806 and 85.0945
same,ATP consumption,"PfAsnRS; 0.1 μM Asn-OSM-S-106, normalised to 1 (Fig 3E), 0.1 µM",0.9937 and 0.8109
same,ATP consumption,"PfAsnRS; 0.5 μM Asn-OSM-S-106, 0 μM = 100 (Fig 3F), 0.5 µM",95.6169 and 98.8652 and 117.558 and 102.603 and 76.814 and 78.5601
same,ATP consumption,"PfAsnRS; 1 μM Asn-OSM-S-106, normalised to 1 (Fig 3E), 1 µM",0.8236 and 0.8406
same,ATP consumption,"PfAsnRS; 3 μM Asn-OSM-S-106, normalised to 1 (Fig 3E), 3 µM",0.3452 and 0.4265
same,ATP consumption,"PfAsnRS; 10 μM Asn-OSM-S-106, normalised to 1 (Fig 3E), 10 µM",0.09706 and 0.1733
same,ATP consumption,HsAsnRS; 0.1 μM Asn-OSM-S-106,1 and 0.9164 and 0.9986
same,ATP consumption,HsAsnRS; 0.3 μM Asn-OSM-S-106,0.9525 and 1
same,IC50,HsAsnRS; 0.5 μM enzyme without tRNA (Fig. 3E),12000 nM
same,ATP consumption,HsAsnRS; 1 μM Asn-OSM-S-106,0.8864 and 0.9489 and 0.9329
same,ATP consumption,HsAsnRS; 3 μM Asn-OSM-S-106,0.7684 and 0.8281 and 0.785
same,ATP consumption,HsAsnRS; 10 μM Asn-OSM-S-106,0.5231 and 0.5272 and 0.5151
same,ATP consumption,HsAsnRS; 30 μM Asn-OSM-S-106,0.2926 and 0.3365 and 0.2915
same,ATP consumption,HsAsnRS; 100 μM Asn-OSM-S-106,0.09965 and 0.131 and 0.08856
C[C@@H]1C[C@@H]([C@H](O)CC2CC(=O)NC(=O)C2)C(=O)[C@@H](C)C1 [Cycloheximide],Translation,"[1]; 39.1 nM, 6 h exposure",91.0615 and 76.2984 and 81.7995
same,Translation,"[1]; 78.1 nM, 6 h exposure",81.922 and 88.5493 and 60.1275
same,Translation,"[1]; 156.3 nM, 6 h exposure",69.0756 and 65.574 and 56.5841
same,Translation,"[1]; 312.5 nM, 6 h exposure",54.5569 and 51.3303 and 54.0173
same,Translation,"[1]; 625 nM, 6 h exposure",34.3298 and 36.573 and 53.0328
same,Translation,"[1]; 1250 nM, 6 h exposure",29.8359 and 24.3187 and 24.0049
same,Translation,"[1]; 2500 nM, 6 h exposure",20.2838 and 21.5354 and 22.6499
same,Translation,"[1]; 5000 nM, 6 h exposure",16.1089 and 19.5652 and 16.2965
same,Translation,"[1]; 10000 nM, 6 h exposure",8.675 and 13.4553 and 5.495
same,Translation,"[1]; 20000 nM, 6 h exposure",7.645 and 6.944 and 4.617
same,IC50,[1]; Plasmodium falciparum,331 nM
same,Viability,"[2]; 39.1 nM, 6 h pulse, individual experiments, 0 nM = 100",97.4339 and 92.233
same,Viability,[2]; [3],94.7793 and 98.0583
same,Viability,[2]; [4],102.013 and 98.7864
same,Viability,[2]; [5],97.9775 and 92.233
same,Viability,[2]; [6],92.6066 and 91.9903
same,Viability,[2]; [7],79.0045 and 78.3981
same,Viability,[2]; [8],100.147 and 80.518 and 75
same,Viability,[2]; [9],78.8213 and 75.2427
same,Viability,[2]; [10],77.1877 and 75
same,Viability,[2]; [11],95.0102 and 69.6652 and 71.1165
same,viability at 0.0391 µM,"[2]; Plasmodium falciparum, 6 h, 39.1 nM, 6 h pulse, individual experiments, 0 nM = 100",108%
same,viability at 0.0781 µM,"[2]; Plasmodium falciparum, 6 h, 78.1 nM, 6 h pulse, individual experiments, 0 nM = 100",95.9%
same,viability at 0.1563 µM,"[2]; Plasmodium falciparum, 6 h, 156.3 nM, 6 h pulse, individual experiments, 0 nM = 100",109%
same,viability at 0.3125 µM,"[2]; Plasmodium falciparum, 6 h, 312.5 nM, 6 h pulse, individual experiments, 0 nM = 100",104%
same,viability at 0.625 µM,"[2]; Plasmodium falciparum, 6 h, 625 nM, 6 h pulse, individual experiments, 0 nM = 100",102%
same,viability at 1.25 µM,"[2]; Plasmodium falciparum, 6 h, 1250 nM, 6 h pulse, individual experiments, 0 nM = 100",95%
same,viability at 5 µM,"[2]; Plasmodium falciparum, 6 h, 5000 nM, 6 h pulse, individual experiments, 0 nM = 100",95.1%
same,viability at 10 µM,"[2]; Plasmodium falciparum, 6 h, 10000 nM, 6 h pulse, individual experiments, 0 nM = 100",88.3%
same,IC50,"[2]; Plasmodium falciparum, 6 h",> 1000 nM
Cc1ccc(S(N)(=O)=O)cc1-c1cc2ncnc(N)c2s1 [OSM-E-32],IC50,P. falciparum (3D7),8330 nM
CC1(C)N=C(N)N=C(N)N1OCCCOc1cc(Cl)c(Cl)cc1Cl [WR99210],Translation,"[1]; 78.1 nM, 6 h exposure",90.9036 and 76.9712 and 89.4018
same,Translation,"[1]; 156.3 nM, 6 h exposure",89.4578 and 82.2873 and 81.3601
same,Translation,"[1]; 312.5 nM, 6 h exposure",91.0241 and 91.4005 and 91.4867
same,Translation,"[1]; 625 nM, 6 h exposure",83.5542 and 90.7751 and 99.6277
same,Translation,"[1]; 1250 nM, 6 h exposure",82.5301 and 79.1155 and 98.3867
same,Translation,"[1]; 2500 nM, 6 h exposure",84.3976 and 81.0364 and 102.259
same,Translation,"[1]; 5000 nM, 6 h exposure",88.5542 and 92.6513 and 94.4155
same,Translation,"[1]; 10000 nM, 6 h exposure",97.2892 and 85.5484 and 98.6845
same,Translation,"[1]; 20000 nM, 6 h exposure",112.47 and 92.0706 and 98.0392
same,Translation,"[1]; 40000 nM, 6 h exposure",103.313 and 81.0364 and 102.259
same,IC50,"[1]; 6 h exposure, OPP in last 2 h, Cam3.II-rev trophozoites",> 1000 nM
same,Viability,[2]; [3],90.9718 and 69.2733 and 98.7384
same,Viability,[2]; [4],76.1805 and 35.562 and 55.9172
same,Viability,[2]; [5],32.1885 and 5.756 and 17.0102
same,Viability,[2]; [6],6.692 and 4.516 and 3.401
same,Viability,[2]; [7],5.505 and 0.4167 and 0.2921
same,Viability,[2]; [8],3.52 and 0.4893 and 0.1273
same,Viability,[2]; [9],3.786 and 0.4893 and 2.194
same,Viability,[2]; [10],2.477 and 1.7781 and 0.09123
same,Viability,[2]; [11],0 and 0.969 and 1.737
same,Viability,"[2]; 40000 nM, 6 h pulse, individual experiments, 0 nM = 100",3.358 and 0 (2×)
same,IC50,"[2]; 6 h pulse, viability at trophozoite stage of next cycle",0.9 nM
